Test results published in patent publication US12208076B2 (Southern Methodist University, priority 2020, dated 2025).

Assay: Thermogravimetric analysis (TGA), thermal stability
Type: physicochemical
Conditions: 10° C./min, nitrogen
Procedure: TGA. […] Each sample was placed in an alumina crucible and heated from 25 to 1000° C. at a heating rate of 10° C./min under a constant flow of nitrogen. […] The different thermal decomposition pattern of a-CAA further supports the hypothesis that the milling product is a co-amorphous formulation and not a physical mixture of amorphous starting materials. […] The similarity between the IR spectra of both formulations points to similarities in their local structures and is indicative of a 1:1 stoichiometry. This stoichiometry was confirmed by thermal analyses. […] The similar TGA profiles of dried c-CAA and a-CAA, shown in FIGS. 3A and 3B, further confirm that the co-amorphous and the co-crystalline formulation have the same stoichiometry and similar local structures.

O=C(O)CC(O)(CC(=O)O)C(=O)O [citric acid anhydrate]
decomposition temperature (stable up to): 164 °C

CN(CC(=O)O)C(=N)N [creatine anhydrate]
decomposition temperature (stable up to): 220 °C
